# Legend:
# [1] = tested on: control sera (pooled serum of ten healthy LUMC hospital workers; commercial negative donor pooled serum from the Dutch bloodbank); assay type: binding, human; set-up: Binding of Control serum LUMC to linear peptides / Binding of Control serum Blood-bank to linear peptides / Binding of Control serum LUMC to looped peptides / Binding of Control Serum Blood-Bank to Looped peptides / Binding of Control serum LUMC to linear peptides of the protein M of SARS-CoV Urbani / Binding of Control serum Blood-bank to linear peptides of the protein M of SARS-CoV Urbani / Binding of Control serum LUMC to looped peptides of the protein M of SARS-CoV Urbani / Binding of Control Serum Blood-Bank to Looped peptides of the protein M of SARS-CoV Urbani: unit not given here
# [2] = tested on: rabbit serum obtained by immunizing a rabbit with the SARS-CoV strain Frankfurt 1; assay type: binding; set-up: Binding of a rabbit serum to linear peptides / Binding of a rabbit serum to looped peptides / Rabbit serum linear peptides / Rabbit serum looped peptides / Binding of a rabbit serum to linear peptides of protein N of SARS-CoV Urbani (Rabbit serum linear peptides) / Binding of a rabbit serum to looped/cyclic peptides of protein N of SARS-CoV Urbani (Rabbit serum looped peptides): unit not given here
# [3] = tested on: antibodies in sera from SARS patients (sera 1a, 1b, 2, 6, 37, 62, London, SARS-yellow, SARS-green); assay type: binding, human; set-up: Binding of serum 6 to linear peptides of protein X1 of SARS-CoV Urbani / Binding of serum 37 to linear peptides of protein X1 of SARS-CoV Urbani / Binding of serum 6 to looped/cyclic peptide (PEPSCAN-ELISA) / Binding of serum 37 to looped/cyclic peptide (PEPSCAN-ELISA) / Binding of serum 37 to looped/cyclic peptides of protein X1 of SARS-CoV Urbani / Binding of serum 6 to linear peptides of protein X2 / Binding of serum 37 to linear peptides of protein X2 / Binding of serum 37 to looped/cyclic peptides of protein X2 of SARS-CoV Urbani / Binding of serum 6 to linear peptides of protein M of SARS-CoV Urbani / Binding of serum 37 to linear peptides of protein M of SARS-CoV Urbani / Binding of serum 6 to looped/cyclic peptides of protein M of SARS-CoV Urbani / Binding of serum 37 to looped/cyclic peptides of protein M of SARS-CoV Urbani / Binding of serum 6 to linear peptides of protein X3 of SARS-CoV Urbani / Binding of serum 37 to linear peptides of protein X3 of SARS-CoV Urbani / Binding of serum 37 to looped/cyclic peptides of protein X3 of SARS-CoV Urbani / Binding of serum 6 to linear peptides of protein X4 of SARS-CoV Urbani / Binding of serum 37 to linear peptides of protein X4 of SARS-CoV Urbani / Binding of serum 37 to looped/cyclic peptides of protein X4 of SARS-CoV Urbani / Binding of serum 6 to linear peptides of protein X5 of SARS-CoV Urbani / Binding of serum 37 to linear peptides of protein X5 of SARS-CoV Urbani / Binding of serum 37 to looped/cyclic peptides of protein X5 of SARS-CoV Urbani / Binding of serum 6 to linear peptides of protein N of SARS-CoV Urbani / Binding of serum 37 to linear peptides of protein N of SARS-CoV Urbani / Binding of serum 6 to linear peptide (PEPSCAN-ELISA) / Binding of serum 1a to looped/cyclic peptides of protein N of SARS-CoV Urbani / Binding of serum 1b to looped/cyclic peptides of protein N of SARS-CoV Urbani / Binding of serum 2 to looped/cyclic peptides of protein N of SARS-CoV Urbani / Binding of serum 6 to looped/cyclic peptides of protein N of SARS-CoV Urbani / Binding of serum 37 to looped/cyclic peptides of protein N of SARS-CoV Urbani / Binding of serum 62 to looped/cyclic peptides of protein N of SARS-CoV Urbani / Binding of serum London to looped/cyclic peptides of protein N of SARS-CoV Urbani / Binding of serum SARS-green to looped/cyclic peptides of protein N of SARS-CoV Urbani: unit not given here
sequence,measurement,setting,value
VFTSCELYHYQECVR,Binding of Control Serum Blood-Bank to Looped peptides,[1],0.7
same,Binding of Control serum Blood-bank to linear peptides,[1],0.7
same,Binding of Control serum LUMC to linear peptides,[1],0.5
same,Binding of Control serum LUMC to looped peptides,[1],0.9
same,Rabbit serum linear peptides,[2],0.5
same,Rabbit serum looped peptides,[2],0.5
same,Binding of serum 1a to linear peptides of protein X4 of SARS-CoV Urbani,[3],0.8
same,Binding of serum 1a to looped/cyclic peptides of protein X4 of SARS-CoV Urbani,[3],0.8
same,Binding of serum 1b to linear peptides of protein X4 of SARS-CoV Urbani,[3],0.6
same,Binding of serum 1b to looped/cyclic peptides of protein X4 of SARS-CoV Urbani,[3],0.7
same,Binding of serum 2 to linear peptides of protein X4 of SARS-CoV Urbani,[3],0.4
same,Binding of serum 2 to looped/cyclic peptides of protein X4 of SARS-CoV Urbani,[3],0.7
same,Binding of serum 6 to linear peptides of protein X4 of SARS-CoV Urbani,[3],0.7
same,Binding of serum 6 to looped/cyclic peptides of protein X4 of SARS-CoV Urbani,[3],0.7
same,Binding of serum 37 to linear peptides of protein X4 of SARS-CoV Urbani,[3],0.8
same,Binding of serum 37 to looped/cyclic peptides of protein X4 of SARS-CoV Urbani,[3],0.8
same,Binding of serum 62 to linear peptides of protein X4 of SARS-CoV Urbani,[3],0.8
same,Binding of serum 62 to looped/cyclic peptides of protein X4 of SARS-CoV Urbani,[3],0.7
same,Binding of serum London to linear peptides of protein X4 of SARS-CoV Urbani,[3],0.7
same,Binding of serum London to looped/cyclic peptides of protein X4 of SARS-CoV Urbani,[3],0.3
same,Binding of serum SARS-green to linear peptides of protein X4 of SARS-CoV Urbani,[3],0.7
same,Binding of serum SARS-green to looped/cyclic peptides of protein X4 of SARS-CoV Urbani,[3],0.7
same,Binding of serum SARS-yellow to linear peptides of protein X4 of SARS-CoV Urbani,[3],0.3
same,Binding of serum SARS-yellow to looped/cyclic peptides of protein X4 of SARS-CoV Urbani,[3],0.5
VGLMWLSYFVASFRL,Binding of Control Serum Blood-Bank to Looped peptides of the protein M of SARS-CoV Urbani,[1],0.6
same,Binding of Control serum Blood-bank to linear peptides of the protein M of SARS-CoV Urbani,[1],0.6
same,Binding of Control serum LUMC to linear peptides of the protein M of SARS-CoV Urbani,[1],0.5
same,Binding of Control serum LUMC to looped peptides of the protein M of SARS-CoV Urbani,[1],0.6
same,Rabbit serum linear peptides,[2],0.0
same,Rabbit serum looped peptides,[2],0.4
same,Binding of serum 1a to linear peptides of protein M of SARS-CoV Urbani,[3],0.6
same,Binding of serum 1a to looped/cyclic peptides of protein M of SARS-CoV Urbani,[3],0.6
same,Binding of serum 1b to linear peptides of protein M of SARS-CoV Urbani,[3],0.5
same,Binding of serum 1b to looped/cyclic peptides of protein M of SARS-CoV Urbani,[3],0.3
same,Binding of serum 2 to linear peptides of protein M of SARS-CoV Urbani,[3],0.4
same,Binding of serum 2 to looped/cyclic peptides of protein M of SARS-CoV Urbani,[3],0.5
same,Binding of serum 6 to linear peptides of protein M of SARS-CoV Urbani,[3],0.5
same,Binding of serum 6 to looped/cyclic peptides of protein M of SARS-CoV Urbani,[3],0.5
same,Binding of serum 37 to linear peptides of protein M of SARS-CoV Urbani,[3],0.4
same,Binding of serum 37 to looped/cyclic peptides of protein M of SARS-CoV Urbani,[3],0.6
same,Binding of serum 62 to linear peptides of protein M of SARS-CoV Urbani,[3],0.4
same,Binding of serum 62 to looped/cyclic peptides of protein M of SARS-CoV Urbani,[3],0.5
same,Binding of serum London to linear peptides of protein M of SARS-CoV Urbani,[3],0.5
same,Binding of serum London to looped/cyclic peptides of protein M of SARS-CoV Urbani,[3],0.2
same,Binding of serum SARS-green to linear peptides of protein M of SARS-CoV Urbani,[3],0.4
same,Binding of serum SARS-green to looped/cyclic peptides of protein M of SARS-CoV Urbani,[3],0.2
same,Binding of serum SARS-yellow to linear peptides of protein M of SARS-CoV Urbani,[3],0.1
same,Binding of serum SARS-yellow to looped/cyclic peptides of protein M of SARS-CoV Urbani,[3],0.8
VGTDSGFAAYNRYRI,Binding of Control Serum Blood-Bank to Looped peptides of the protein M of SARS-CoV Urbani,[1],0.5
same,Binding of Control serum Blood-bank to linear peptides of the protein M of SARS-CoV Urbani,[1],0.7
same,Binding of Control serum LUMC to linear peptides of the protein M of SARS-CoV Urbani,[1],0.3
same,Binding of Control serum LUMC to looped peptides of the protein M of SARS-CoV Urbani,[1],0.6
same,Rabbit serum linear peptides,[2],0.4
same,Rabbit serum looped peptides,[2],0.0
same,Binding of serum 1a to linear peptides of protein M of SARS-CoV Urbani,[3],0.8
same,Binding of serum 1a to looped/cyclic peptides of protein M of SARS-CoV Urbani,[3],0.7
same,Binding of serum 1b to linear peptides of protein M of SARS-CoV Urbani,[3],0.4
same,Binding of serum 1b to looped/cyclic peptides of protein M of SARS-CoV Urbani,[3],0.4
same,Binding of serum 2 to linear peptides of protein M of SARS-CoV Urbani,[3],0.4
same,Binding of serum 2 to looped/cyclic peptides of protein M of SARS-CoV Urbani,[3],0.7
same,Binding of serum 6 to linear peptides of protein M of SARS-CoV Urbani,[3],0.3
same,Binding of serum 6 to looped/cyclic peptides of protein M of SARS-CoV Urbani,[3],0.6
same,Binding of serum 37 to linear peptides of protein M of SARS-CoV Urbani,[3],0.6
same,Binding of serum 37 to looped/cyclic peptides of protein M of SARS-CoV Urbani,[3],0.7
same,Binding of serum 62 to linear peptides of protein M of SARS-CoV Urbani,[3],0.7
same,Binding of serum 62 to looped/cyclic peptides of protein M of SARS-CoV Urbani,[3],0.8
same,Binding of serum London to linear peptides of protein M of SARS-CoV Urbani,[3],0.3
same,Binding of serum London to looped/cyclic peptides of protein M of SARS-CoV Urbani,[3],0.2
same,Binding of serum SARS-green to linear peptides of protein M of SARS-CoV Urbani,[3],0.3
same,Binding of serum SARS-green to looped/cyclic peptides of protein M of SARS-CoV Urbani,[3],0.4
same,Binding of serum SARS-yellow to linear peptides of protein M of SARS-CoV Urbani,[3],0.1
same,Binding of serum SARS-yellow to looped/cyclic peptides of protein M of SARS-CoV Urbani,[3],0.5
